The target of assay [1] is Casein kinase II subunit alpha' (Homo sapiens) (UniProt P19784). In words: Inhibition of human recombinant CK2a2 at 40 nM related to control ULK1.
The target in assay [2] is Tyrosine-protein kinase Yes (Homo sapiens) (UniProt P07947). Kind of assay: Inhibition of human recombinant YES at 500 nM related to control ULK1.
The target of assay [3] is T1, Serine/threonine-protein kinase STK11 (Homo sapiens) (UniProt Q15831).
T1 sequence (whole entry): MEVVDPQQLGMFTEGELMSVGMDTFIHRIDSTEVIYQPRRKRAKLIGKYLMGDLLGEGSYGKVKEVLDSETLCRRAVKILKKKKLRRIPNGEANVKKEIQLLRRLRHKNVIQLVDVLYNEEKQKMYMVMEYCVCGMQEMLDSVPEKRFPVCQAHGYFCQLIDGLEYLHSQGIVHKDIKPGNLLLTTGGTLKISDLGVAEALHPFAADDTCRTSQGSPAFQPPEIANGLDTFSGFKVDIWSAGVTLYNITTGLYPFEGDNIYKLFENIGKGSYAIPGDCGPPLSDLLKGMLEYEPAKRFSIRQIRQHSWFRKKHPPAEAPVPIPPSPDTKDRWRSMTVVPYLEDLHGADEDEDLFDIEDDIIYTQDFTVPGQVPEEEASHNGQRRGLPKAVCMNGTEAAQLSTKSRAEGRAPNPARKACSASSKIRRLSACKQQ
In words: Inhibition of human recombinant LKB1 at 500 nM in presence of ATP by radiometric assay relative to control.

For assay [4], the target named is Serine/threonine-protein kinase 10 (Homo sapiens) (UniProt O94804). Kind of assay: Inhibition of human recombinant LOK at 500 nM related to control ULK1.
Sequence of Serine/threonine-protein kinase 10 (Homo sapiens) (O94804 whole entry, looked up): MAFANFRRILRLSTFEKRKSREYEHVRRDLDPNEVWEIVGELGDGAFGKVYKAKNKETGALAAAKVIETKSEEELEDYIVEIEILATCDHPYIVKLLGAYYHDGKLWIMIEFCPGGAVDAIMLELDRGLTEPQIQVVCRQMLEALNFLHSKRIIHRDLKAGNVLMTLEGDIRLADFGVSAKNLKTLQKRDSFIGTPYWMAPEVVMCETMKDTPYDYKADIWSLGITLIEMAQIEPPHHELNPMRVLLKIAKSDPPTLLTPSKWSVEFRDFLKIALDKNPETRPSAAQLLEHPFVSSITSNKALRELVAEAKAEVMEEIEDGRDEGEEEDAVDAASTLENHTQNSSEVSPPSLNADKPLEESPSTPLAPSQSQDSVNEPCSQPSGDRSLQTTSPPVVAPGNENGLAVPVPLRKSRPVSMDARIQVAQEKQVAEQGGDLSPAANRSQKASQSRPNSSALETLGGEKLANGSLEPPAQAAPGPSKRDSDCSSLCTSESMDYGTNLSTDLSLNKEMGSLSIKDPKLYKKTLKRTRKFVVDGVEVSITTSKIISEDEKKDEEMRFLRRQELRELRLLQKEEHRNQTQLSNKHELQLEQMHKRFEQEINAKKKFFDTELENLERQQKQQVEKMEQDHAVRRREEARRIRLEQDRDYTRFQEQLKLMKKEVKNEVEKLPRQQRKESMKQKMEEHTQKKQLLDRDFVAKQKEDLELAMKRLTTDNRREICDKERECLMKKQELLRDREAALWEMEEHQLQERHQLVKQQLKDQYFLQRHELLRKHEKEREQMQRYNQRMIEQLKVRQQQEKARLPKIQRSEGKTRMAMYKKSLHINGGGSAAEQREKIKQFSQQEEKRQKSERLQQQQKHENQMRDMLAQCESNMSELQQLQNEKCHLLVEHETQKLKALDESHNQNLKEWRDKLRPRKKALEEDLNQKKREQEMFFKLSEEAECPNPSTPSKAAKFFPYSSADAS
The target of assay [5] is STE20-like serine/threonine-protein kinase (Homo sapiens) (UniProt Q9H2G2). Kind of assay: Inhibition of human recombinant SLK at 500 nM in presence of ATP by radiometric assay relative to control.
Sequence of STE20-like serine/threonine-protein kinase (Homo sapiens) (Q9H2G2 whole entry, looked up): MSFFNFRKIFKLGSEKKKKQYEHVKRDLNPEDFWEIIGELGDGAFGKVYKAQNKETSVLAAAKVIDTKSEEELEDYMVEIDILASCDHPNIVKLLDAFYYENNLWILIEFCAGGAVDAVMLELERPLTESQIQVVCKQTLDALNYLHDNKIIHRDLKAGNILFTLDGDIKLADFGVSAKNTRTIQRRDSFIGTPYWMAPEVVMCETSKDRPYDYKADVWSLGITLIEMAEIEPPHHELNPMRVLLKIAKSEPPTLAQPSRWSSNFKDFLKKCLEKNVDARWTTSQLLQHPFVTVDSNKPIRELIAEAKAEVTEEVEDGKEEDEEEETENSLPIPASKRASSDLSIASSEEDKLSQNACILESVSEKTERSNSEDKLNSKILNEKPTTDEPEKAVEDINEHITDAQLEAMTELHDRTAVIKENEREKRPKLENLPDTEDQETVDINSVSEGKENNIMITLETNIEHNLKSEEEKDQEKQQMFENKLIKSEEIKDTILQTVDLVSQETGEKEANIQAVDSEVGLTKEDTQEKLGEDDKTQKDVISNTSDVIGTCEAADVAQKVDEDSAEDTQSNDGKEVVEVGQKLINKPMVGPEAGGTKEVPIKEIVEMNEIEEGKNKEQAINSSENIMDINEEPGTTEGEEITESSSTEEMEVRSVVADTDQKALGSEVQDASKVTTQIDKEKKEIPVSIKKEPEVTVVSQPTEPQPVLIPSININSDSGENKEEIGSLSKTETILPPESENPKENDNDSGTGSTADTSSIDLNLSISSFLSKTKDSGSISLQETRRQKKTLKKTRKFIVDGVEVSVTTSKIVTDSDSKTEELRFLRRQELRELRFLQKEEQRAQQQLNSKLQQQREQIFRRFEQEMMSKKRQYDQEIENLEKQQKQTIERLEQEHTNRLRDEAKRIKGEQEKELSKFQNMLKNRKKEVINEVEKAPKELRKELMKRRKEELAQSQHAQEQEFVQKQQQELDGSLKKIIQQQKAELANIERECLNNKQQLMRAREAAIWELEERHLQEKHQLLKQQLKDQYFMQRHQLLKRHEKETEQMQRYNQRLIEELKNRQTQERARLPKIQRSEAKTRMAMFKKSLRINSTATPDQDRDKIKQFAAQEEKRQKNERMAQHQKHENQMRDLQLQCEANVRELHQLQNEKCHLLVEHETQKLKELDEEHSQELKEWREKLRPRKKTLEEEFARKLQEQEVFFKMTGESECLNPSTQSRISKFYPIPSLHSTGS
For assay [6], the target named is T2, Serine/threonine-protein kinase Nek11 (Homo sapiens) (UniProt Q8NG66).
T2 sequence (whole entry): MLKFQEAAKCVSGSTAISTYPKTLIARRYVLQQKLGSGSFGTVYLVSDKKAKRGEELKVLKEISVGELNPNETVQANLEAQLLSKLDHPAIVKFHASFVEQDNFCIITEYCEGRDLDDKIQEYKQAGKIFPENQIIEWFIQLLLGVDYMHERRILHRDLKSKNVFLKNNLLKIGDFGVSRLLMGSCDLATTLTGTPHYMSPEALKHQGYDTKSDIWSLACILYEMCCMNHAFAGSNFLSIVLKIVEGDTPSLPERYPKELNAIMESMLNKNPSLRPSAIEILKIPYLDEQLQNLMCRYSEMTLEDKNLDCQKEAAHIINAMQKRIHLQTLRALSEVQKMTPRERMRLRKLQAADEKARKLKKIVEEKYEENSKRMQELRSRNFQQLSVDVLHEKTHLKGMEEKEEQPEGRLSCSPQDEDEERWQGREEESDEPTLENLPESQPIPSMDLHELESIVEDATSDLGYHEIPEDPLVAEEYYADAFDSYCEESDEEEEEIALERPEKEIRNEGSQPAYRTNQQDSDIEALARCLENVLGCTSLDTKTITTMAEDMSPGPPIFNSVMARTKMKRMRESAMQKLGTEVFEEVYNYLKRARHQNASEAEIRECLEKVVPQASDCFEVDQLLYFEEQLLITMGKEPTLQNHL
Kind of assay: Inhibition of human recombinant NEK11 at 15 nM related to control ULK1.

For assay [7], the target named is T3, Serine/threonine-protein kinase haspin (Homo sapiens) (UniProt Q8TF76).
T3 sequence (whole entry): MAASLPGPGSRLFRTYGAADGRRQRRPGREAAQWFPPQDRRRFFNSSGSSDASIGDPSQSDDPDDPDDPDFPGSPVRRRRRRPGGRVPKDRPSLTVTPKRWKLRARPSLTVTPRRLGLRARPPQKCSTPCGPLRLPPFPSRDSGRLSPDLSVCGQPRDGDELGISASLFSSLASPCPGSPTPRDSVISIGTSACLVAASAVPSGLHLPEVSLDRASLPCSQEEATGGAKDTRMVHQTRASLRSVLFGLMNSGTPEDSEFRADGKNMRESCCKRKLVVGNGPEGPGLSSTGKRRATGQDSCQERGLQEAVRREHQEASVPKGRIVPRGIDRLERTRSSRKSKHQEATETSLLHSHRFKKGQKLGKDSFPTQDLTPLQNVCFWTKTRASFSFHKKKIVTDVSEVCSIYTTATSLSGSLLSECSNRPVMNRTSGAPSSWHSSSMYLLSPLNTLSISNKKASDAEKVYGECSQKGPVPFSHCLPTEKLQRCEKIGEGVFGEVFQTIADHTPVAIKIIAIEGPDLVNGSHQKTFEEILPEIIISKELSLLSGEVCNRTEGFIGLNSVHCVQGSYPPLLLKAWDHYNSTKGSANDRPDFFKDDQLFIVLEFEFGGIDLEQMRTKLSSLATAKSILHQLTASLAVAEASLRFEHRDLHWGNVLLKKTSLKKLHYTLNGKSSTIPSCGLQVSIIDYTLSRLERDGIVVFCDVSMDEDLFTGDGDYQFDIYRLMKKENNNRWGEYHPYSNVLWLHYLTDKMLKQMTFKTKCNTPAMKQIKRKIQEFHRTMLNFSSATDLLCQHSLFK
In words: Inhibition of human recombinant Haspin at 15 nM in presence of ATP by radiometric assay relative to control.

Assay [8] has as its target T4, NUAK family SNF1-like kinase 2 (Homo sapiens) (UniProt Q9H093).
T4 sequence (whole entry): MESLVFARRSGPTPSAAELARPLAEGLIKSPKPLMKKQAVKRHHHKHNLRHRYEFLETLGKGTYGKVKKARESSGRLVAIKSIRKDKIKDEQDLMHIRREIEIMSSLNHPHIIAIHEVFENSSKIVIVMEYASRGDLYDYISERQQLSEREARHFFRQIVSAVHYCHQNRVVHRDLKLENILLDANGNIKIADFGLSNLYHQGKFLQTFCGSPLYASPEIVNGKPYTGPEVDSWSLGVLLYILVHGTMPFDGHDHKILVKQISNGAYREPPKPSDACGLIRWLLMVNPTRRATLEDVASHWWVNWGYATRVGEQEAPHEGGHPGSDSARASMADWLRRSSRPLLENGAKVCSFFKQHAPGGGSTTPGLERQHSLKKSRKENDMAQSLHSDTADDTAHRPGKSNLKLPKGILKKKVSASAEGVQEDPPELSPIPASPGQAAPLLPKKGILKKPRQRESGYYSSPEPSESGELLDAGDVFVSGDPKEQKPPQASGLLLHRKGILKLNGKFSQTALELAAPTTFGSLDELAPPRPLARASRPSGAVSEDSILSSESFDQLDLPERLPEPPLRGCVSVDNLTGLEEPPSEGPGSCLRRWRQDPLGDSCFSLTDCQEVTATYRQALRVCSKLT
In words: Inhibition of human recombinant NuaK2 at 15 nM in presence of ATP by radiometric assay relative to control.

Sequence of Tyrosine-protein kinase Yes (Homo sapiens) (P07947 2-543 limits assumed): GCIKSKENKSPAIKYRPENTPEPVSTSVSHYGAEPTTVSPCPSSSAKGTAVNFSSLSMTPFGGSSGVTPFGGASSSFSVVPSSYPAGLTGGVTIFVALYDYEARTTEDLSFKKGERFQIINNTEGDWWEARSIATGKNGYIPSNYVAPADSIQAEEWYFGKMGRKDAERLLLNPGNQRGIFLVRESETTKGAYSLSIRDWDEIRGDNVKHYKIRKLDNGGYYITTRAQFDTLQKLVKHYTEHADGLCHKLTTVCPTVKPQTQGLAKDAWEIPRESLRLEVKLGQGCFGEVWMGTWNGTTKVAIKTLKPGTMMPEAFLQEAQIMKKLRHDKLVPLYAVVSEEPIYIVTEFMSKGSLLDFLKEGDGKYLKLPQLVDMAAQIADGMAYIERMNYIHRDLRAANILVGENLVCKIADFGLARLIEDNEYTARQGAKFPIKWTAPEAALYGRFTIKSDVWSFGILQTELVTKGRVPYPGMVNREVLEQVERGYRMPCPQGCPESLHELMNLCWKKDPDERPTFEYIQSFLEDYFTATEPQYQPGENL
Sequence of Casein kinase II subunit alpha' (Homo sapiens) (P19784 whole entry, looked up): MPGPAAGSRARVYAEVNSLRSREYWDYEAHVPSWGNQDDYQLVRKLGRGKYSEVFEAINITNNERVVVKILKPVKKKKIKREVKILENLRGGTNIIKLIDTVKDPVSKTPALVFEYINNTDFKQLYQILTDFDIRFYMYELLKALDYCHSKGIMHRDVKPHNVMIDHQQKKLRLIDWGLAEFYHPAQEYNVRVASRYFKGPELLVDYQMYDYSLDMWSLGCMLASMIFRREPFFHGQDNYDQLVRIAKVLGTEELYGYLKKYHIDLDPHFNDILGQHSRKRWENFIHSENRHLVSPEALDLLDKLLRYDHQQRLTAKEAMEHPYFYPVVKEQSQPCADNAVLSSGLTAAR

Regarding `O=C(N[C@@H](C1CC1)C(F)(F)F)c1cc(-c2cnn3cc(-c4ccc(F)cc4)cnc23)cs1`, in assay [1], the fold change (FC) is 0.11.

Broadly, the inhibition is the drop in the measured response relative to a control, in per cent. In the case of `CNC(=O)c1ccccc1Oc1nc(Nc2cc(OC)c(OC)c(OC)c2)ncc1Br`, the fold change (FC) was 0.89 in assay [2] and 0 in assay [4]. Moreover, the inhibition in assay [3] turned out to be 12%; in assay [5], 15%.

Take `CC(C)[C@H](NC(=O)c1cc(-c2cnn3cc(-c4ccc(OCCN5CCCCC5)cc4)cnc23)cs1)C(F)(F)F`: in assay [6], the fold change (FC) is 0. The inhibition was found to be 0% in assay [7] and 18% in assay [8].

The values above are taken from ChEMBL document CHEMBL5653631, “A Potent and Selective ULK1 Inhibitor Suppresses Autophagy and Sensitizes Cancer Cells to Nutrient Stress” (iScience, 2018).
